Data reported in paper PMC4644980, “The FDA-approved natural product dihydroergocristine reduces the production of the Alzheimer’s disease amyloid-β peptides” (Scientific Reports, 2015).

Tests used:
[1] = system: γ-secretase (APP-CTF processing) in HEK293 cells; experiment: Western blot of endogenous APP-FL and APP-CTF in HEK293 cells; format: cell-based; conditions: 24 h
Experimental: (§3) The levels of β-actin were used as equal loading controls. […] The levels of β-actin served as equal loading controls.
(§4) Western Blot analysis of full-length APP, APP-CTFs, Notch1-NICD and γ-secretase components was carried out according to the procedures described in the Supplementary information[31].

[2] = system: Aβ production in HEK293 cells; experiment: Aβ total ELISA of media from HEK293 cells; format: cell-based
Experimental: (§1) The levels of β-actin were used as equal loading controls. […] The Aβ data are expressed as a percentage of the control value and presented as the means ± sd. […] Fibroblast cells from an AD patient carrying the PS1 missense mutation A246E were treated with various compounds, and the levels of APP-FL, APP-CTF and β-actin, as well as Aβ, were measured as described above. The Aβ data are expressed as a percentage of the control value and presented as the means ± sd. (n = 3). […] The levels of β-actin served as equal loading controls. The densitometric quantifications for the Western Blots are shown in Supplementary Fig. S2. For full blots, please see Supplementary Fig. S9.
(§2) Aβ1-x peptides secreted in the cell media were quantitatively measured by ELISA (IBL, Gunma, Japan) according to the standard protocol from the manufacturer. Aβ40 and Aβ42 generated in the C100-Flag γ-secretase assays stopped with 0.5% SDS (final concentration) were quantified with the human Beta Amyloid or [1–42] colorimetric ELISA kit, respectively.

[3] = system: endogenous γ-secretase in fibroblast cells from an AD patient; experiment: Western blot of APP-CTF in fibroblast cells from an AD patient (PS1 A246E); format: cell-based, human; conditions: dose series
Experimental: Fibroblast cells from an AD patient carrying the PS1 missense mutation A246E were treated with various compounds, and the levels of APP-FL, APP-CTF and β-actin, as well as Aβ, were measured as described above. […] (n = 3). […] The levels of β-actin served as equal loading controls.
as §4

[4] = system: Aβ production in fibroblast cells from an AD patient; experiment: Aβ total ELISA of media from fibroblast cells from an AD patient (PS1 A246E); format: cell-based, human
Experimental: as §1, §2

[5] = system: human Notch1 extracellular truncation (NEXT) cleavage by γ-secretase; experiment: cleavage of human Notch1 NEXT (NICD Western blot) in HEK293 cells; format: cell-based
Experimental: as §3, §4

[6] = system: γ-secretase subunits (mNCT, PS1-NTF); experiment: Western blot of γ-secretase subunits in HEK293 or fibroblast cells; format: cell-based
Experimental: for 10 min before adding 25 µl of the stop solution. The fluorescence was monitored with a microplate reader (emission at 590 nm after excitation at 560 nm).
Western blot and antibodies
WT HEK293 or fibroblast cells were collected and lysed in 1% Nonidet P-40-HEPES buffer, and equal amounts of proteins [normalized by BCA (Pierce)] were separated by SDS-PAGE onto a 12% Tris-glycine gel, transferred onto a PVDF membrane (Bio-Rad, USA) and further probed with antibody CT15 (for APP/APP-CTFs, 1:2000, […]
(1:1000; Abcam, Cambridge, MA, USA) for PS1-NTF, UD-1 (for Pen-2, 1:500; a gift of Dr. Helena Karlström, Karolinska Institute, Sweden), NCT164 (for NCT, 1:1000; BD Bioscience, Bedford, MA, USA) as well as with an antibody for β-actin (1:2000, Abmart). For the analysis of Notch NICD, cell extracts were separated by SDS-PAGE onto a 10% Tris-glycine gel, transferred onto a PVDF membrane and blotted for NICD with an anti-Notch Ab1744 antibody (for the free N-terminus of NICD, 1:500, Cell Signaling Technology, Beverly, MA, USA).
Samples from in vitro γ-secretase activity assays were run on 16% Tricine-SDS-PAGE gels and transferred onto PVDF to detect Aβ and AICD-Flag with 6E10 (1:1000, Covance, Berkeley, CA, USA) and CT15 antibodies (1:5000, Sigma-Aldrich), […]

γ-secretase = γ-secretase (Homo sapiens, UniProt P49768+Q92542); experiment: cell-based luciferase reporter assay for γ-secretase inhibition (T100 cells); parameters: endogenous in cells; host or cells: T-REx HeLa cells (T100) stably transfected with the substrate C99-Gal4-VP16 and a luciferase reporter; conditions: 24 h, read-out: IC50, inhibition of APP-C99 processing
Experimental: To identify natural product-based bioactive inhibitors of γ-secretase, we screened 417 natural products by using a cell-based luciferase reporter assay for γ-secretase inhibition (T100, see Methods), which we recently developed in TREx HeLa cells according to the methodology described in ref. [17]. […] Thus, this assay is sufficiently sensitive to detect the inhibitory effects of 100 nM DAPT on cellular γ-secretase activity. Additionally, this new cell-based assay tolerated up to 2% DMSO, which is a great advantage when screening inhibitors in a high-throughput format.
T-REx-HeLa cells (T100) stably overexpressing C99-Gal4-VP16 and luciferase were generated according to the method described in refs [17],[30]. For details, see Supplementary Information.
Cell-based γ-secretase assays were performed using the T100 cell line according to the methods detailed in ref. [30] (for details, see Supplementary information). […]
concentrations of substrate at 37 °C for 4 h, after which the enzymatic reactions were stopped by adding 0.5% SDS (final concentration). The samples were analyzed by Western Blot for AICD-Flag or Aβ. […]

Structure (SMILES): C[C@H](NC(=O)Cc1cc(F)cc(F)c1)C(=O)N[C@H](C(=O)OC(C)(C)C)c1ccccc1 [DAPT, N-[N-(3,5-difluorophenylacetyl)-L-alanyl-]-(S)-phenylglycine-t-butyl ester]
- accumulation of the carboxy-terminal fragments of APP (APP-CTFs) [1]: dose-dependent accumulation
- total Aβ levels [2]: markedly reduced
- accumulation of APP-CTFs [3]: dose-dependent accumulation
- total Aβ levels [4]: markedly reduced
- preference for APP-based versus Notch-based substrate ([5]; HEK293 cells overexpressing hAPP or Notch1-NEXT): showed no preference
- production of intracellular human NICD ([5]; HEK293 cells overexpressing human NEXT, 1 μM): completely blocked
- assembly and maturation of the protease complex (mNCT, PS1-NTF) [6]: not altered
- IC50 (γ-secretase): ~200 nM
